Holding throughout (assay type): in vivo
One test has as its system Galium aparine. Put plainly: Greenhouse pre-emergence (PRE) herbicidal test on GALAP. The settings on record: PRE, GALAP; for inhibition at 200 g/ha: use rate 200 gai/ha. From the text:
(§1) The culture containers used were plastic pots containing loamy sand with approximately 3.0% of humus as substrate. The seeds of the test plants were sown separately for each species.
(§2) For the pre-emergence treatment, the active compounds, suspended or emulsified in water, were applied directly after sowing by means of finely distributing nozzles. The containers were irrigated gently to promote germination and growth and subsequently covered with transparent plastic hoods until the plants had rooted. This cover caused uniform germination of the test plants unless this was adversely affected by the active compounds.
(§3) Depending on the species, the plants were kept at 10-25° C. and 20-35° C., respectively.
(§4) The test period extended over 2 to 4 weeks. During this time, the plants were tended and their response to the individual treatments was evaluated.
(§5) Evaluation was carried out using a scale from 0 to 100. 100 means no emergence of the plants, or complete destruction of at least the above-ground parts, and 0 means no damage or normal course of growth. A good herbicidal activity is given at values of at least 70, and very good herbicidal activity is given at values of at least 85.
(§6) If not stated differently, the respective components A and B, and if appropriate, C were formulated as a 5% by weight strength emulsion concentrate and, with addition of the amount of solvent system, introduced into the spray liquor used for applying the active compound.
(§7) As indicated application was either post emergent (POST) at the respective growth stage (GS) of the weed (BBCH code), or pre-emergent (PRE).
(§8) Assessment was 20 days after treatment (DAT).

In another test the test system is Lolium multiflorum. Put plainly: Greenhouse pre-emergence (PRE) herbicidal test on LOLMU. The settings on record: Lolium multiflorum, pre-emergence, PRE, LOLMU. Summed up: (§9)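 Seeds were sown per species in loamy sand with ~3.0% humus, treated pre-emergence and kept at 10-25° C or 20-35° C depending on species. Damage was scored at 20 days after treatment on a 0-100 scale (100 = no emergence or complete destruction of above-ground parts, 0 = no damage).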

The test system of another test is Brachiaria decumbens. As to the kind of experiment: Greenhouse pre-emergence (PRE) herbicidal test on BRADC. The conditions noted are these: Urochloa decumbens, PRE, BRADC.
Description: as §1, §2, §3, §4, §5, §6, §7, §8

In test [1] the test system is Geranium pusillum. As to the kind of experiment: Greenhouse pre-emergence (PRE) herbicidal test on GERPU. The settings on record: Geranium pusillum, pre-emergence, PRE; GERPU; use rate 200 gai/ha.
Description: as §1, §2, §3, §4, §5, §6, §7, §8

A further test has as its system Polygonum convolvulus. As to the kind of experiment: Greenhouse pre-emergence (PRE) herbicidal test on POLCO.
Description: as §1, §2, §3, §4, §5, §6, §7, §8

Another test relates to Euphorbia heterophylla. As to the kind of experiment: Greenhouse pre-emergence (PRE) herbicidal test on EPHHL. The conditions noted are these: PRE. In a few lines: as §9
Test [2] relates to Abutilon theophrasti. As to the kind of experiment: Greenhouse pre-emergence (PRE) herbicidal test on ABUTH. The settings on record: PRE, ABUTH. Summed up: as §9
The subject of test [3] is Setaria viridis. Put plainly: Greenhouse pre-emergence (PRE) herbicidal test on SETVI. The conditions noted are these: Setaria viridis, pre-emergence, 480 h, PRE, SETVI, 20 DAT, read-out: % activity solo application. In a few lines: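 Seeds sown in loamy sand (~3.0% humus); compounds in water applied by fine nozzles directly after sowing, then pots irrigated and hooded until rooting. Plants held at 10-25° C or 20-35° C by species; damage scored 0-100 (100 = no emergence/complete destruction) 20 days after treatment.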

For test [4], the system named is Abutilon theophrasti. Put plainly: Greenhouse post-emergence (POST) herbicidal test on ABUTH. The conditions noted are these: Abutilon theophrasti, post-emergence, 480 h, POST, ABUTH, 20 DAT, read-out: % activity solo application. In a few lines:
(§10)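 Injury was rated visually on a 0–100 scale, where 0 is normal growth and 100 is complete above-ground kill, 20 days after treatment. Test plants at 3–15 cm height received a post-emergence spray of water-dispersed active from 5% emulsion concentrates. Pots held loamy sand with ~3.0% humus, at 10-25 °C or 20-35 °C depending on species.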

The subject of test [5] is Ipomoea hederacea. As to the kind of experiment: Greenhouse pre-emergence (PRE) herbicidal test on IPOHE. The settings on record: Ipomoea hederacea, pre-emergence, 480 h, PRE, IPOHE, 20 DAT.
Description: as §1, §2, §3, §4, §5, §6, §7, §8

The next test concerns Digitaria sanguinalis. As to the kind of experiment: Greenhouse post-emergence (POST) herbicidal test on DIGSA. The conditions noted are these: Digitaria sanguinalis, post-emergence, 480 h, POST, DIGSA, 5 gai/ha, 20 DAT; read-out: % activity solo application. Summed up: as §10
The test system of test [6] is Setaria viridis. As to the kind of experiment: Greenhouse post-emergence (POST) herbicidal test on SETVI. The conditions noted are these: 480 h, use rate 5 gai/ha, 20 DAT. How it is done:
as §1
(§11) For the post-emergence treatment, the test plants were grown to a plant height of from 3 to 15 cm, depending on the plant habit, and only then treated with the active compounds which had been suspended or emulsified in water. To this end, the test plants were either sown directly, and grown in the same containers, or they were first grown separately as seedlings and transplanted into the test containers a few days prior to treatment.
as §3, §4, §5, §6, §7, §8

The subject of test [7] is Geranium pusillum. Put plainly: Greenhouse post-emergence (POST) herbicidal test on GERPU. The settings on record: Geranium pusillum, post-emergence, 480 h, POST, GERPU, 20 DAT. Summed up:
as §10

Test [8] relates to Commelina benghalensis. Put plainly: Greenhouse post-emergence (POST) herbicidal test on COMBE. The conditions noted are these: 480 h, use rate 1.25 gai/ha, 20 DAT. How it is done:
as §1, §11, §3, §4, §5, §6, §7, §8

Another test has as its system Ambrosia artemisiifolia. As to the kind of experiment: Greenhouse pre-emergence (PRE) herbicidal test on AMBEL. The settings on record: Ambrosia artemisiifolia, pre-emergence, 480 h, PRE, AMBEL, 20 DAT, read-out: % activity solo application.
Test [9] concerns Commelina benghalensis. Put plainly: Greenhouse pre-emergence (PRE) herbicidal test on COMBE. The settings on record: Commelina benghalensis, pre-emergence, PRE, COMBE. Summed up:
as §9

A further test has as its system Alopecurus myosuroides. As to the kind of experiment: Greenhouse pre-emergence (PRE) herbicidal test on ALOMY. The conditions noted are these: Alopecurus myosuroides, pre-emergence, 480 h, PRE, ALOMY, 20 DAT, read-out: % activity solo application. In a few lines: as §9
For test [10], the system named is Ipomoea hederacea. Put plainly: Greenhouse post-emergence (POST) herbicidal test on IPOHE. The conditions noted are these: Ipomoea hederacea, post-emergence, 480 h, POST, IPOHE, 20 DAT, read-out: % activity solo application. In a few lines:
as §10

The next test deals with Echinochloa crus-galli. Put plainly: Greenhouse pre-emergence (PRE) herbicidal test on ECHCG. The conditions noted are these: Echinochloa crus-galli, pre-emergence, 480 h, PRE, ECHCG, 20 DAT, read-out: % activity solo application.
The test system of test [11] is Amaranthus retroflexus. As to the kind of experiment: Greenhouse post-emergence (POST) herbicidal test on AMARE. The conditions noted are these: Amaranthus retroflexus, post-emergence, 480 h, POST, AMARE, 20 DAT, read-out: % activity solo application. Summed up:
as §10

Test [12] relates to Amaranthus retroflexus. As to the kind of experiment: Greenhouse pre-emergence (PRE) herbicidal test on AMARE. The settings on record: Amaranthus retroflexus, pre-emergence, 480 h; PRE, AMARE, 1.25 gai/ha, 20 DAT; read-out: % activity solo application. In a few lines: as §9
Setting [13] is: 480 h, 1.25 gai/ha, 20 DAT, read-out: % activity solo application.

The source of these data is patent US20260007133A1, “HERBICIDAL COMPOSITION COMPRISING AZINE COMPOUNDS” (BASF SE, priority 2022, published 2026).

Where two headings read alike, the source gives them in different places.

As for `CCCOCCN(C(=O)CCl)c1c(CC)cccc1CC` [Pretilachlor, pretilachlor], the inhibition at 200 g/ha in the test on Galium aparine (Galium aparine, pre-emergence) was 15%; with Brachiaria decumbens (use rate 200 gai/ha) it was 40%; with Geranium pusillum [1], 45%; in the test on Polygonum convolvulus (Fallopia convolvulus, pre-emergence, use rate 200 gai/ha), 30%; in the test on Euphorbia heterophylla (Euphorbia heterophylla, pre-emergence, EPPHL, use rate 200 gai/ha), 10%. In addition, the inhibition at 25 g/ha came to 0% in the test with Lolium multiflorum (use rate 25 gai/ha); 0% in the test with Brachiaria decumbens (use rate 25 gai/ha); 0% in the test with Polygonum convolvulus (Fallopia convolvulus, pre-emergence, use rate 25 gai/ha); 0% in the test on Euphorbia heterophylla (Euphorbia heterophylla, pre-emergence, EPPHL, use rate 25 gai/ha).

For `CC1(C)CON(Cc2ccc(Cl)cc2Cl)C1=O` [Bixlozone, bixlozone], the “% activity” value was 50% with Galium aparine (use rate 60 gai/ha); 0% with Polygonum convolvulus (use rate 60 gai/ha); 0% with Euphorbia heterophylla (EPPHL, use rate 15 gai/ha); 0% with Euphorbia heterophylla (EPPHL, use rate 60 gai/ha); 0% in the test with Abutilon theophrasti [2] (use rate 60 gai/ha).

On to `CC(C)N(C)S(=O)(=O)NC(=O)c1cc(-n2c(=O)cc(C(F)(F)F)n(C)c2=O)c(F)cc1Cl` [Saflufenacil, saflufenacil], for which the inhibition at 1.25 g/ha in the test with Setaria viridis [3] (1.25 gai/ha) amounted to 0%; in the test with Abutilon theophrasti [4] (1.25 gai/ha) it was 5%; in the test on Lolium multiflorum (setting [13]), 0%; in the test with Commelina benghalensis [8] it was 60%; with Ambrosia artemisiifolia (1.25 gai/ha) it was 0%; in the test with Commelina benghalensis [9] (setting [13]), 5%. Further, the inhibition at 1.25 g/ha in the test with Alopecurus myosuroides (1.25 gai/ha) is 20%; in the test with Euphorbia heterophylla (Euphorbia heterophylla, pre-emergence, 480 h, EPHHL, 1.25 gai/ha, 20 DAT, read-out: % activity solo application), 5%; in the test on Ipomoea hederacea [10] (1.25 gai/ha), 0%; with Echinochloa crus-galli (1.25 gai/ha), 0%; in the test with Abutilon theophrasti [2] (Abutilon theophrasti, pre-emergence, 480 h, 1.25 gai/ha, 20 DAT, read-out: % activity solo application), 10%; with Amaranthus retroflexus [11] (1.25 gai/ha) it was 0%. In addition, the inhibition at 1.25 g/ha in the test with Amaranthus retroflexus [12] was determined as 0%. Further, the inhibition at 5 g/ha in the test on Setaria viridis [3] (5 gai/ha) is 0%; in the test on Abutilon theophrasti [4] (5 gai/ha), 10%; in the test on Lolium multiflorum (480 h, 5 gai/ha, 20 DAT, read-out: % activity solo application), 0%; with Lolium multiflorum (480 h, use rate 5 gai/ha, 20 DAT, read-out: % activity), 45%; in the test with Ipomoea hederacea [5] (use rate 5 gai/ha), 25%; in the test on Digitaria sanguinalis, 0%. Further, the inhibition at 5 g/ha with Setaria viridis [6] was 60%; in the test on Geranium pusillum [7] (use rate 5 gai/ha, read-out: % activity), 80%; in the test with Ambrosia artemisiifolia (5 gai/ha), 50%; in the test with Alopecurus myosuroides (5 gai/ha), 10%; in the test with Euphorbia heterophylla (Euphorbia heterophylla, pre-emergence, 480 h, EPHHL, 5 gai/ha, 20 DAT, read-out: % activity solo application) it was 50%; in the test on Ipomoea hederacea [10] (5 gai/ha), 10%. Further, the inhibition at 5 g/ha in the test with Echinochloa crus-galli (5 gai/ha) and in the test on Amaranthus retroflexus [11] (5 gai/ha) was 0% in each case. Also, the inhibition at […] was 5% in the test with Ipomoea hederacea [5] (use rate 2.5 gai/ha) and 60% in the test on Geranium pusillum [7] (use rate 2.5 gai/ha).

Regarding `CCC(CC)Nc1c([N+](=O)[O-])cc(C)c(C)c1[N+](=O)[O-]` [Pendimethalin, pendimethalin], the inhibition at 200 g/ha with Galium aparine (Galium aparine, pre-emergence) is 0%; in the test with Lolium multiflorum (use rate 200 gai/ha), 0%; with Commelina benghalensis [9] (use rate 200 gai/ha) it was 40%; in the test with Abutilon theophrasti [2] (Abutilon theophrasti, pre-emergence, use rate 200 gai/ha), 65%. Further, the inhibition at 800 g/ha was 10% in the test on Galium aparine (Galium aparine, pre-emergence, use rate 800 gai/ha); 70% in the test on Polygonum convolvulus (Fallopia convolvulus, pre-emergence, use rate 800 gai/ha); 50% in the test on Commelina benghalensis [9] (use rate 800 gai/ha).
